From US7524853B2 (Solvay Pharmaceuticals B.V., priority 2003, dated 2009)

Assays:
Assay type in all cases: cell-based
[1] = target: T1, 17β-hydroxysteroid dehydrogenase type 1 (17β-HSD type 1) (Homo sapiens, UniProt P14061); experiment: Inhibition of 17β-HSD type 1 in MCF-7 cells stably expressing the isoenzyme (tritium labeled estrone conversion, HPLC); settings: MCF7, MCF-7 cells expressing 17β-HSD type 1, 2 nM tritium labeled estrone; for inhibition at 1 µM: 1 μM test compound, read-out: % Inhibition HSD1 1 μM; for inhibition at 10 µM: 10 μM test compound, read-out: % Inhibition HSD1 10 μM
T1 construct: expressed in transfected cells; host or cells: MCF-7
T1 sequence (P14061 1-328): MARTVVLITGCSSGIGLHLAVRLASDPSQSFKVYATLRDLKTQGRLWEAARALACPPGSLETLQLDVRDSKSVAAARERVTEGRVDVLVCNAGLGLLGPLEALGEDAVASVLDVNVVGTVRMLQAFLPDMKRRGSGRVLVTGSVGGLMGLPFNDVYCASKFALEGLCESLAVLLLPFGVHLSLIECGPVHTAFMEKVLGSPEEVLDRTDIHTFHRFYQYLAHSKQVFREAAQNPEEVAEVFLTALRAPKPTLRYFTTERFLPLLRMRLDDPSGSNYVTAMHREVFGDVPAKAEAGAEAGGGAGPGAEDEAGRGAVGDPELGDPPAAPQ
How it was run: (§1)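 Cells: stable MCF-7 transfectants per isoenzyme. Step one, add compound (two concentrations) plus 2 nM labelled substrate to growth medium. Step two, remove medium at a set time and stop with trichloroacetic acid. Step three, quantify conversion by HPLC with flow scintillation.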

[2] = target: T2, 17β-hydroxysteroid dehydrogenase type 2 (17β-HSD type 2) (Homo sapiens, UniProt P37059); experiment: Inhibition of 17β-HSD type 2 in MCF-7 cells stably expressing the isoenzyme (tritium labeled estradiol conversion, HPLC); settings: MCF7, MCF-7 cells expressing 17β-HSD type 2, 2 nM tritium labeled estradiol; for inhibition at 1 µM: 1 μM test compound, read-out: % Inhibition HSD2 1 μM; for inhibition at 10 µM: 10 μM test compound, read-out: % Inhibition HSD2 10 μM
T2 construct: expressed in transfected cells; host or cells: MCF-7
T2 sequence (P37059 1-387): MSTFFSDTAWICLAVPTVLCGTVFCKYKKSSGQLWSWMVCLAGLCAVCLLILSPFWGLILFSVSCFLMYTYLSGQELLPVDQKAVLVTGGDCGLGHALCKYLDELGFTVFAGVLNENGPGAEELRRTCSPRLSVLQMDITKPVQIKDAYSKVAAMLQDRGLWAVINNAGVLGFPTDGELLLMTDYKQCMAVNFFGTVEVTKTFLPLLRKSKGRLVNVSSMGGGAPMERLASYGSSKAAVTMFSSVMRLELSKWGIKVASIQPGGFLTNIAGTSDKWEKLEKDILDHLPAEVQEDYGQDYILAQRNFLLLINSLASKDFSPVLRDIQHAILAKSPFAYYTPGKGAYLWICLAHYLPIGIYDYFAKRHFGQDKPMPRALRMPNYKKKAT
How it was run: as §1

[3] = target: T3, 17β-hydroxysteroid dehydrogenase type 3 (17β-HSD type 3) (Homo sapiens, UniProt P37058); experiment: Inhibition of 17β-HSD type 3 in MCF-7 cells stably expressing the isoenzyme (tritium labeled androstenedione conversion, HPLC); settings: MCF7, MCF-7 cells expressing 17β-HSD type 3, 2 nM tritium labeled androstenedione; for inhibition at 1 µM: 1 μM test compound, read-out: % Inhibition HSD3 1 μM; for inhibition at 10 µM: 10 μM test compound, read-out: % Inhibition HSD3 10 μM
T3 construct: expressed in transfected cells; host or cells: MCF-7
T3 sequence (P37058 1-310): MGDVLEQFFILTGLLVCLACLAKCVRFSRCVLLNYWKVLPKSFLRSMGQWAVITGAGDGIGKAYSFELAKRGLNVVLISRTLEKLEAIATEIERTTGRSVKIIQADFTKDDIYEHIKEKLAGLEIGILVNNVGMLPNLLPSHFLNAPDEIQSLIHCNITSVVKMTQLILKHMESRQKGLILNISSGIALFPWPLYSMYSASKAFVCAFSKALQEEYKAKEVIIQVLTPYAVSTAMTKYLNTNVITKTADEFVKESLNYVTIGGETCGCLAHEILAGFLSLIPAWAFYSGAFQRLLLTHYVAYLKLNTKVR
How it was run: as §1

| inhibition at 1 µM [1] | inhibition at 10 µM [1] | inhibition at 1 µM [2] | inhibition at 10 µM [2] | inhibition at 1 µM [3] | inhibition at 10 µM [3] | SMILES |
| --- | --- | --- | --- | --- | --- | --- |
| 39.3% | 62.2% | 19.7% | 20.7% | 19.7% | 44.1% | COc1cc(-c2nc3sc4c(O)cccc4c3c(=O)n2CC(C)C)c(Br)c(OC)c1OC [No. 117, 8-Hydroxy-3-isobutyl-2-(2-bromo-3,4,5-trimethoxyphenyl)-3H-benzo[4,5]thieno[2,3-d]pyrimidin-4-one] |
| 31% | 51.5% | 23.6% | 24.4% | 10.8% | 24.4% | COc1cc(-c2nc3sc4c(OC(C)=O)cccc4c3c(=O)n2CC(C)C)c(Br)c(OC)c1OC [No. 118, Acetic acid 2-(2-bromo-3,4,5-trimethoxyphenyl)-3-isobutyl-4-oxo-3,4-dihydro-benzo[4,5]-thieno[2,3-d]pyrimidin-8-yl ester] |
| 9.6% | 27.9% | 25.1% | 30.1% | 2.3% | 19.1% | COc1cc(-c2nc3sc4c(c3c(=O)n2Cc2ccco2)CCCC4)cc(OC)c1OC [No. 119, 3-Furan-2-ylmethyl-2-(3,4,5-trimethoxylphenyl)-5,6,7,8-tetrahydro-3H-benzo[4,5]thieno[2,3-d]pyrimidin-4-one] |
| 17.6% | 52.1% | 19.9% | 35.4% | 12.4% | 38.4% | COc1cc(-c2nc3sc4c(c3c(=O)n2Cc2ccco2)CCCC4=O)cc(OC)c1OC [No. 120, 3-Furan-2-ylmethyl-2-(3,4,5-trimethoxylphenyl)-6,7-dihydro-3H,5H-benzo[4,5]thieno[2,3-d]pyrimidine-4,8-dione] |
| 13.9% | 49% | 15.4% | 26.2% | 9.4% | 56.2% | COc1cc(-c2nc3sc4c(O)cccc4c3c(=O)n2Cc2ccc(Br)o2)cc(OC)c1OC [No. 122, 3-(5-Bromofuran-2-ylmethy1)-8-hydroxy-2-(3,4,5-trimethoxyphenyl)-3H-benzo[4,5]thieno[2,3-d]pyrimidin-4-one] |
| 19.4% | 62.9% | 24.6% | 40.2% | 1.3% | 29.1% | COc1cc(-c2nc3sc4c(c3c(=O)n2Cc2ccccc2)CCC(Cl)C4=O)c(Cl)c(OC)c1OC (stereo not drawn) [No. 123, 3-Benzyl-7-chloro-2-(2-chloro-3,4,5-trimethoxyphenyl)-6,7-dihydro-3H,5H-benzo[4,5]thieno[2,3-d]pyrimidine-4,8-dione] |
| 40.2% | 73.3% | 0.2% | 17.6% | 8.3% | 42.4% | COc1cc(-c2nc3sc4c(O)cccc4c3c(=O)n2Cc2ccccc2)c(Cl)c(OC)c1OC [No. 124, 3-Benzyl-2-(2-chloro-3,4,5-trimethoxyphenyl)-8-hydroxy-3H-benzo[4,5]thieno[2,3-d]pyrimidin-4-one] |
| 34.7% | 49.9% | 11.7% | 19.8% | 10.9% | 21% | CCC(C)Cn1c(-c2cc(OC)c(OC)c(OC)c2)nc2sc3c(c2c1=O)CCCC3 (stereo not drawn) [No. 125, 3-(2-Methylbutyl)-2-(3,4,5-trimethoxyphenyl)-5,6,7,8-tetrahydro-3H-benzo[4,5]thieno[2,3-d]pyrimidin-4-one] |

Further lines, the compound ahead of its results:

| SMILES | inhibition at 1 µM [1] | inhibition at 10 µM [1] | inhibition at 1 µM [2] | inhibition at 10 µM [2] | inhibition at 1 µM [3] | inhibition at 10 µM [3] |
| --- | --- | --- | --- | --- | --- | --- |
| CCCc1nc2sc3c(O)c(Br)ccc3c2c(=O)n1Cc1ccc(Br)o1 [No. 107, 7-Bromo-3-(5-bromofuran-2-ylmethyl)-8-hydroxy-2-propyl-3H-benzo[4,5]thieno[2,3-d]pyrimidin-4-one] | -14.2% | 24.7% | 25.4% | 45.7% | 3.2% | 44.3% |
| COCCn1c(-c2cc(OC)c(OC)c(OC)c2)nc2sc3c(c2c1=O)CCCC3 [No. 108, 3-(2-Methoxyethyl)-2-(3,4,5-trimethoxyphenyl)-5,6,7,8-tetrahydro-3H-benzo[4,5]thieno[2,3-d]pyrimidin-4-one] | 5.2% | 11% | 9.6% | 7.4% | 0.8% | 9.8% |
| COCCn1c(-c2cc(OC)c(OC)c(OC)c2)nc2sc3c(c2c1=O)CCCC3=O [No. 109, 3-(2-Methoxyethyl)-2-(3,4,5-trimethoxyphenyl)-6,7-dihydro-3H,5H-benzo[4,5]thieno[2,3-d]pyrimidine-4,8-dione] | -0.2% | 20.7% | 6% | 9.7% | 0.6% | 11.6% |
| COCCn1c(-c2cc(OC)c(OC)c(OC)c2Br)nc2sc3c(c2c1=O)CCC(Br)C3=O (stereo not drawn) [No. 111, 7-Bromo-2-(2-bromo-3,4,5-trimethoxyphenyl)-3-(2-methoxyethyl)-6,7-dihydro-3H,5H-benzo[4,5]thieno[2,3-d]pyrimidine-4,8-dione] | 23.8% | 56.9% | 24.7% | 48.7% | 7.3% | 41.5% |
| COCCn1c(-c2cc(OC)c(OC)c(OC)c2Br)nc2sc3c(O)cccc3c2c1=O [No. 112, 2-(2-Bromo-3,4,5-trimethoxyphenyl)-8-hydroxy-3-(2-methoxyethyl)-3H-benzo[4,5]thieno[2,3-d]pyrimidin-4-one] | 28.3% | 54.4% | 14.6% | 46.3% | 7% | 49.4% |
| COc1cc(-c2nc3sc4c(c3c(=O)n2CC(C)C)CCCC4)cc(OC)c1OC [No. 113, 3-Isobutyl-2-(3,4,5-trimethoxyphenyl)-5,6,7,8-tetrahydro-3H-benzo[4,5]thieno[2,3-d]pyrimidin-4-one] | 22.2% | 57.6% | 8.2% | 7.7% | 2.7% | 48.9% |
| COc1cc(-c2nc3sc4c(c3c(=O)n2CC(C)C)CCCC4=O)cc(OC)c1OC [No. 114, 3-Isobutyl-2-(3,4,5-trimethoxyphenyl)-6,7-dihydro-3H,5H-benzo[4,5]thieno[2,3-d]pyrimidine-4,8-dione] | 15.5% | 55.9% | 15.5% | 25.3% | 2.4% | 32% |
| COc1cc(-c2nc3sc4c(c3c(=O)n2CC(C)C)CCC(Br)C4=O)cc(OC)c1OC (stereo not drawn) [No. 115, 7-Bromo-3-isobutyl-2-(3,4,5-trimethoxyphenyl)-6,7-dihydro-3H,5H-benzo[4,5]thieno[2,3-d]pyrimidine-4,8-dione] | 22.9% | 70.3% | 18.7% | 19.5% | 7.6% | 20.7% |
| COc1cc(-c2nc3sc4c(c3c(=O)n2CC(C)C)CCC(Br)C4=O)c(Br)c(OC)c1OC (stereo not drawn) [No. 116, 7-Bromo-2-(2-bromo-3,4,5-trimethoxypheny1)-3-isobutyl-6,7-dihydro-3H,5H-benzo[4,5]thieno[2,3-d]pyrimidine-4,8-dione] | 12.5% | 41.4% | 28% | 26.1% | 8.1% | 21.2% |
